According to patent US8557741B2, “3-aminocarbonyl-substituted benzoylcyclohexanediones and their use as herbicides” (Bayer CropScience AG, priority 2010, dated 2013):

Legend:
Type in all cases: in vivo
[1] = test system: Abutilon theophrasti; assay: Post-emergence herbicidal action against harmful plants; details: 504 h, read-out: Herbicidal action against ABUTH; for pest or weed control at 80 g/ha: dosage 80 g/ha, visual rating after about 3 weeks (Table D)
Source text: (§1) The abbreviations used in the tables below denote: • ABUTH Abutilon theophrasti • AMARE Amaranthus retroflexus • ECHCG Echinochloa crus galli • PHBPU Phartoitis purpureum • STEME Stellaria media • ALOMY Alopecurus myosuroides • AVEFA Avena fatua • MATIN Matricaria inodora • POLCO Fallopia convolvulus • VERPE Veronica persica 1. Pre-emergence Herbicidal Action Against Harmful Plants Seeds of monocotyledonous and dicotyledonous weed and crop plants are placed in sandy loam in wood-fibre pots, covered with soil and cultivated in a greenhouse under good growth conditions. 2 to 3 weeks after sowing, the test plants are treated at the one-leaf stage. The compounds according to the invention, formulated in the form of wettable powders (WP) or as emulsion concentrates (EC), are then sprayed as aqueous suspension or emulsion at a water application rate of 600 to 800 I/ha (converted) with the addition of 0.2% of wetting agent onto the green parts of the plants. After the test plants have been kept in the greenhouse under optimum growth conditions for about 3 weeks, the activity of the preparations is rated visually in comparison to untreated controls (herbicidal activity in percent (%): 100% activity=the plants have died, 0% activity=control plants, —=not tested).

[2] = test system: Stellaria media; assay: as above; details: 504 h, read-out: Herbicidal action against STEME; for pest or weed control at 80 g/ha: dosage 80 g/ha, visual rating after about 3 weeks (Table D)
Source text: as §1

[3] = test system: Veronica persica; assay: as above; details: 504 h, read-out: Herbicidal action against VERPE; for pest or weed control at 80 g/ha: dosage 80 g/ha, visual rating after about 3 weeks (Table D)
Source text: as §1

[4] = test system: Fallopia convolvulus; assay: as above; details: 504 h, dosage 80 g/ha, visual rating after about 3 weeks (Table D), read-out: Herbicidal action against POLCO
Source text: as §1

[5] = test system: Echinochloa crus galli; assay: as above; details: 504 h, read-out: Herbicidal action against ECHCG; for pest or weed control at 80 g/ha: dosage 80 g/ha, visual rating after about 3 weeks (Table D)
Source text: as §1

[6] = test system: Matricaria inodora; assay: as above; details: Tripleurospermum inodorum, 504 h, dosage 80 g/ha, visual rating after about 3 weeks (Table D), read-out: Herbicidal action against MATIN
Source text: as §1

[7] = test system: Phartoitis purpureum; assay: as above; details: 504 h; for pest or weed control at 80 g/ha: dosage 80 g/ha, visual rating after about 3 weeks (Table D), read-out: Herbicidal action against PHBPU
Source text: as §1

[8] = test system: Amaranthus retroflexus; assay: as above; details: 504 h, dosage 80 g/ha, visual rating after about 3 weeks (Table D), read-out: Herbicidal action against AMARE
Source text: as §1

[9] = test system: Abutilon theophrasti; assay: Pre-emergence herbicidal action against harmful plants; details: Abutilon theophrasti, 504 h, read-out: Herbicidal action against ABUTH; for pest or weed control at 320 g/ha: dosage 320 g/ha, visual assessment after 3 weeks (Table A)
Source text: (§2) The abbreviations used in the tables below denote: • ABUTH Abutilon theophrasti • AMARE Amaranthus retroflexus • ECHCG Echinochloa crus galli • PHBPU Phartoitis purpureum • STEME Stellaria media • ALOMY Alopecurus myosuroides • AVEFA Avena fatua • MATIN Matricaria inodora • POLCO Fallopia convolvulus • VERPE Veronica persica 1. Pre-emergence Herbicidal Action Against Harmful Plants Seeds of monocotyledonous and dicotyledonous weed plants and crop plants are placed in wood-fibre pots in sandy loam and covered with soil. The compounds according to the invention and the compounds known from the prior art, formulated in the form of wettable powders (WP) or as emulsion concentrates (EC), are then applied as aqueous suspension or emulsion at a water application rate of 600 to 800 I/ha (converted) with the addition of 0.2% of wetting agent to the surface of the covering soil. After the treatment, the pots are placed in a greenhouse and kept under good growth conditions for the test plants. The visual assessment of the damage to the test plants is carried out after a trial period of 3 weeks by comparison with untreated controls (herbicidal activity in percent (%): 100% activity=the plants have died, 0% activity=like control plants, —=not tested). The results of comparative table A show the compounds according to the invention have a higher herbicidal activity than the compounds of the greatest structural similarity known from the closest prior art.

[10] = test system: Stellaria media; assay: as above; details: 504 h, dosage 320 g/ha, visual assessment after 3 weeks (Table A), read-out: Herbicidal action against STEME
Source text: as §2

[11] = test system: Avena fatua; assay: as above; details: dosage 320 g/ha, visual assessment after 3 weeks (Table A)
Source text: as §2

[12] = test system: Veronica persica; assay: as above; details: 504 h, read-out: Herbicidal action against VERPE; for pest or weed control at 320 g/ha: dosage 320 g/ha, visual assessment after 3 weeks (Table A)
Source text: as §2

[13] = test system: Echinochloa crus galli; assay: as above; details: Echinochloa, 504 h, dosage 320 g/ha, visual assessment after 3 weeks (Table A), read-out: Herbicidal action against ECHCG
Source text: as §2

[14] = test system: Matricaria inodora; assay: as above; details: Tripleurospermum inodorum, 504 h, dosage 320 g/ha, visual assessment after 3 weeks (Table A), read-out: Herbicidal action against MATIN
Source text: as §2

[15] = test system: Amaranthus retroflexus; assay: as above; details: 504 h, read-out: Herbicidal action against AMARE; for pest or weed control at 320 g/ha: dosage 320 g/ha, visual assessment after 3 weeks (Table A)
Source text: as §2

[16] = test system: VIOTR; assay: Post-emergence herbicidal action against harmful plants; details: dosage 20 g/ha, visual rating after about 3 weeks (Table F)
Protocol: as §1, with “Seeds” for “The abbreviations used in the tables below denote: • ABUTH Abutilon theophrasti • AMARE Amaranthus retroflexus • ECHCG Echinochloa crus galli • PHBPU Phartoitis purpureum • STEME Stellaria media • ALOMY Alopecurus myosuroides • AVEFA Avena fatua • MATIN Matricaria inodora • POLCO Fallopia convolvulus • VERPE Veronica persica 1. Pre-emergence Herbicidal Action Against Harmful Plants Seeds”

[17] = test system: Alopecurus myosuroides; assay: Pre-emergence herbicidal action against harmful plants; details: dosage 320 g/ha, visual assessment after 3 weeks (Table A)
Source text: as §2

[18] = dosage 20 g/ha, visual rating after about 3 weeks (Table F)
[19] = dosage 80 g/ha, visual assessment after 3 weeks (Table B)

## CCN(C)C(=O)COc1c(S(C)(=O)=O)ccc(C(=O)C2=C(O)CCCC2=O)c1C(F)(F)F [Compound E7]
[1]
  pest or weed control at 80 g/ha: 90%
[2]
  pest or weed control at 80 g/ha: 100%
[3]
  pest or weed control at 80 g/ha: 100%
[4]
  pest or weed control at 80 g/ha: 80%
[5]
  pest or weed control at 80 g/ha: 90%
[6]
  pest or weed control at 80 g/ha: 100%
[7]
  pest or weed control at 80 g/ha: 100%
[8]
  pest or weed control at 80 g/ha: 100%
[9]
  pest or weed control at 320 g/ha: 100%
[10]
  pest or weed control at 320 g/ha: 100%
[11]
  Herbicidal action against AVEFA: 80%
[12]
  pest or weed control at 320 g/ha: 100%
[13]
  pest or weed control at 320 g/ha: 100%
[14]
  pest or weed control at 320 g/ha: 100%
[15]
  pest or weed control at 320 g/ha: 100%

## CCN(C)C(=O)COc1c(S(C)(=O)=O)ccc(C(=O)C2=C(O)CCCC2=O)c1Cl [Compound S7, reference compound]
[1]
  pest or weed control at 80 g/ha: 90%
[2]
  pest or weed control at 80 g/ha: 90%
[3]
  pest or weed control at 80 g/ha: 100%
[4]
  pest or weed control at 80 g/ha: 10%
[5]
  pest or weed control at 80 g/ha: 60%
[6]
  pest or weed control at 80 g/ha: 80%
[7]
  pest or weed control at 80 g/ha: 90%
[8]
  pest or weed control at 80 g/ha: 70%
[9]
  pest or weed control at 320 g/ha: 80%
[10]
  pest or weed control at 320 g/ha: 90%
[11]
  Herbicidal action against AVEFA: 0%
[12]
  pest or weed control at 320 g/ha: 100%
[13]
  pest or weed control at 320 g/ha: 80%
[14]
  pest or weed control at 320 g/ha: 100%
[15]
  pest or weed control at 320 g/ha: 100%

## CCS(=O)(=O)c1ccc(C(=O)C2=C(SCC(=O)OC)CCCC2=O)c(C(F)(F)F)c1OCC(=O)N(C)C [Compound E9]
[16]
  Herbicidal action against VIOTR: 100%
[1]; [18]
  pest or weed control at 20 g/ha: 100%
[2]; [18]
  pest or weed control at 20 g/ha: 90%
[3]; [18]
  pest or weed control at 20 g/ha: 100%
[5]; [18]
  pest or weed control at 20 g/ha: 90%
[7]; dosage 20 g/ha, visual rating after about 3 weeks (Table F), read-out: Herbicidal action against PHPBU
  pest or weed control at 20 g/ha: 80%
[9]; [19]
  pest or weed control at 80 g/ha: 90%
[12]; [19]
  pest or weed control at 80 g/ha: 90%
[15]; [19]
  pest or weed control at 80 g/ha: 90%

## CCS(=O)(=O)c1ccc(C(=O)C2=C(O)CCCC2=O)c(Cl)c1OCC(=O)N(C)C [Compound S5, reference compound]
[1]
  pest or weed control at 80 g/ha: 90%
[2]
  pest or weed control at 80 g/ha: 80%
[3]
  pest or weed control at 80 g/ha: 100%
[4]
  pest or weed control at 80 g/ha: 20%
[5]
  pest or weed control at 80 g/ha: 40%
[7]
  pest or weed control at 80 g/ha: 60%
[8]
  pest or weed control at 80 g/ha: 80%
[9]
  pest or weed control at 320 g/ha: 90%
[10]
  pest or weed control at 320 g/ha: 90%
[17]
  Herbicidal action against ALOMY: 0%
[12]
  pest or weed control at 320 g/ha: 100%
[13]
  pest or weed control at 320 g/ha: 100%
[14]
  pest or weed control at 320 g/ha: 90%
[15]
  pest or weed control at 320 g/ha: 100%
